From ChEMBL document CHEMBL1201862, “PubChem BioAssay data set” (2004)
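Exposure lasted 48 hours, with cells grown in 96-well plates and compounds tested at five concentrations. GI50 = concentration required for 50% inhibition of growth.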 Calls of active or inactive are those of the source. Cut-off read from the data, not from the text of the source: active = GI50 up to about 1.1 µM and inactive = higher. Residues, ends and D or L forms follow the SMILES beside them. *: point of attachment. Boc = CC(C)(C)OC(=O)*; OBn = c1ccc(CO*)cc1

Legend:
Assay in all cases: NCI-60 cell line screen, 48 h
NCI-H522 = tested on: NCI-H522
LOX IMVI = tested on: LOX IMVI
SN12C = tested on: SN12C
786-0 = tested on: 786-0
NCI/ADR-RES = tested on: NCI/ADR-RES
BT-549 = tested on: BT-549
HCT-15 = tested on: HCT-15
OVCAR-8 = tested on: OVCAR-8
T47D = tested on: T47D
ACHN = tested on: ACHN
OVCAR-4 = tested on: OVCAR-4
SK-MEL-28 = tested on: SK-MEL-28
SNB-75 = tested on: SNB-75
MCF7 = tested on: MCF7
SF-295 = tested on: SF-295
U-251 = tested on: U-251
CAKI-1 = tested on: CAKI-1
OVCAR-3 = tested on: OVCAR-3
RPMI-8226 = tested on: RPMI-8226
MDA-N = tested on: MDA-N

Structure (SMILES)	GI50 (NCI-H522)	GI50 (LOX IMVI)	GI50 (SN12C)	GI50 (786-0)	GI50 (NCI/ADR-RES)	GI50 (BT-549)	GI50 (HCT-15)	GI50 (OVCAR-8)	GI50 (T47D)	GI50 (ACHN)	GI50 (OVCAR-4)	GI50 (SK-MEL-28)	GI50 (SNB-75)	GI50 (MCF7)	GI50 (SF-295)	GI50 (U-251)	GI50 (CAKI-1)	GI50 (OVCAR-3)	GI50 (RPMI-8226)	GI50 (MDA-N)
N=C(N)N/N=C/c1c(-c2ccc([N+](=O)[O-])cc2)nc2sccn12	2 µM (inactive)	1.86 µM (inactive)	1.77 µM (inactive)	1.47 µM (inactive)	> 100 µM (inactive)	1.82 µM (inactive)	10.2 µM	2.12 µM (inactive)	1.74 µM (inactive)	2.64 µM (inactive)	1.46 µM (inactive)	1.94 µM (inactive)	1.8 µM (inactive)	1.42 µM (inactive)	1.39 µM (inactive)	1.58 µM (inactive)	2.43 µM (inactive)	1.37 µM (inactive)	5.27 µM (inactive)	–
COC(=O)Cc1c([C@H]2[C@H](CC(=O)OC)c3ccccc3N2S(=O)(=O)c2ccc(C)cc2)[nH]c2ccccc12	> 28.4 µM (inactive)	> 100 µM (inactive)	> 100 µM (inactive)	> 100 µM (inactive)	> 100 µM (inactive)	> 100 µM (inactive)	> 100 µM	> 100 µM (inactive)	–	> 100 µM (inactive)	> 100 µM (inactive)	> 100 µM (inactive)	–	> 100 µM (inactive)	> 100 µM (inactive)	> 100 µM (inactive)	> 100 µM (inactive)	> 100 µM (inactive)	7 µM (inactive)	> 100 µM (inactive)
C=C(CCC(C)C1CCC2C3=C(C(=O)CC21C)C1(C)CCC(=O)[C@@H](C)C1CC3=O)C(C)C(=O)O (stereo partly drawn)	45.8 µM (inactive)	17.4 µM (inactive)	> 100 µM (inactive)	18.3 µM (inactive)	> 100 µM (inactive)	47.3 µM (inactive)	77.8 µM	61 µM (inactive)	30.7 µM (inactive)	29.9 µM (inactive)	48.1 µM (inactive)	> 100 µM (inactive)	42.4 µM (inactive)	> 100 µM (inactive)	53.2 µM (inactive)	56.5 µM (inactive)	30.7 µM (inactive)	60.1 µM (inactive)	–	–
C=C(CCOC)CCC1CCCCC(=C)[C@H]1O (stereo partly drawn)	> 100 µM (inactive)	–	> 100 µM (inactive)	> 100 µM (inactive)	> 100 µM (inactive)	–	> 100 µM	> 100 µM (inactive)	> 100 µM (inactive)	> 100 µM (inactive)	> 100 µM (inactive)	> 100 µM (inactive)	> 100 µM (inactive)	> 100 µM (inactive)	> 100 µM (inactive)	> 100 µM (inactive)	> 100 µM (inactive)	> 100 µM (inactive)	> 100 µM (inactive)	> 100 µM (inactive)
CC1=C(O)C(=O)C2=C(C1=O)[C@@H]([C@@H](C)C/C=C/C(C)(C)O)CC[C@@H]2C	21.3 µM (inactive)	29.6 µM (inactive)	87.1 µM (inactive)	> 100 µM (inactive)	77.1 µM (inactive)	–	31 µM	78.9 µM (inactive)	27.2 µM (inactive)	31.4 µM (inactive)	–	–	–	41.1 µM (inactive)	44.3 µM (inactive)	52.7 µM (inactive)	37.9 µM (inactive)	25.5 µM (inactive)	23.5 µM (inactive)	44.8 µM (inactive)
CC(=O)CC(O)(C(F)(F)Cl)C(F)(F)Cl	> 10 µM (inactive)	> 10 µM (inactive)	> 10 µM (inactive)	> 10 µM (inactive)	> 10 µM (inactive)	–	> 10 µM	> 10 µM (inactive)	> 10 µM (inactive)	> 10 µM (inactive)	> 10 µM (inactive)	> 10 µM (inactive)	> 10 µM (inactive)	> 10 µM (inactive)	> 10 µM (inactive)	> 10 µM (inactive)	> 10 µM (inactive)	> 10 µM (inactive)	> 10 µM (inactive)	> 10 µM (inactive)
Cc1cccc2c1c(=O)c1c(O)cc3c(c1n2C)C=CC(C)(C)O3	> 100 µM (inactive)	> 100 µM (inactive)	> 100 µM (inactive)	> 100 µM (inactive)	> 100 µM (inactive)	> 100 µM (inactive)	> 100 µM	> 100 µM (inactive)	–	> 100 µM (inactive)	> 100 µM (inactive)	> 100 µM (inactive)	> 100 µM (inactive)	> 100 µM (inactive)	> 100 µM (inactive)	> 100 µM (inactive)	> 100 µM (inactive)	> 100 µM (inactive)	> 100 µM (inactive)	> 100 µM (inactive)
O=C1c2ccccc2-c2nc(-c3cccnc3)cc3c2c1nc1ccccc13	> 100 µM (inactive)	40.3 µM (inactive)	> 100 µM (inactive)	> 100 µM (inactive)	> 100 µM (inactive)	> 100 µM (inactive)	> 100 µM	> 100 µM (inactive)	–	> 100 µM (inactive)	> 100 µM (inactive)	> 100 µM (inactive)	> 100 µM (inactive)	> 100 µM (inactive)	58.3 µM (inactive)	> 100 µM (inactive)	> 100 µM (inactive)	11.6 µM (inactive)	45.8 µM (inactive)	–
CC[C@H](CCCC[C@H]1CC[C@@H]2CC(=O)C[C@H]12)OC	65.8 µM (inactive)	> 100 µM (inactive)	–	> 100 µM (inactive)	47.4 µM (inactive)	36.9 µM (inactive)	–	> 100 µM (inactive)	58.9 µM (inactive)	> 100 µM (inactive)	> 100 µM (inactive)	–	> 100 µM (inactive)	–	65.9 µM (inactive)	95.5 µM (inactive)	> 100 µM (inactive)	85.3 µM (inactive)	34 µM (inactive)	–
Cc1ccc(-n2c(C)n[nH]c2=O)cc1	> 100 µM (inactive)	> 100 µM (inactive)	> 100 µM (inactive)	> 100 µM (inactive)	> 100 µM (inactive)	> 100 µM (inactive)	> 100 µM	> 100 µM (inactive)	–	> 100 µM (inactive)	–	> 100 µM (inactive)	> 100 µM (inactive)	> 100 µM (inactive)	> 100 µM (inactive)	> 100 µM (inactive)	–	> 100 µM (inactive)	> 100 µM (inactive)	> 100 µM (inactive)
CC12C=CC(C)(C3C(=O)C4C(C(=O)C31)C1(C)C=CC4(C)[S+]1[O-])[S+]2[O-] (stereo not drawn)	38.4 µM (inactive)	81.5 µM (inactive)	–	51.2 µM (inactive)	64.7 µM (inactive)	> 100 µM (inactive)	87.3 µM	56 µM (inactive)	–	> 100 µM (inactive)	–	–	57.5 µM (inactive)	–	> 100 µM (inactive)	–	> 100 µM (inactive)	> 100 µM (inactive)	–	> 100 µM (inactive)
CCN(CC)C(=S)N/N=C(/C)c1cccc(/C(C)=N\NC(=S)N(CC)CC)n1	3.23 µM (inactive)	1.81 µM (inactive)	2.79 µM (inactive)	1.45 µM (inactive)	2 µM (inactive)	–	2.3 µM	1.44 µM (inactive)	4.88 µM (inactive)	0.678 µM (active)	1.25 µM (inactive)	1.21 µM (inactive)	3.21 µM (inactive)	2.04 µM (inactive)	1.66 µM (inactive)	2.34 µM (inactive)	1.29 µM (inactive)	1.35 µM (inactive)	2.08 µM (inactive)	6.37 µM (inactive)
O=c1ccc(-c2ccc(-n3ccnc3)cc2)nn1CCO	> 100 µM (inactive)	–	> 100 µM (inactive)	> 100 µM (inactive)	–	> 100 µM (inactive)	> 100 µM	> 100 µM (inactive)	–	> 100 µM (inactive)	> 100 µM (inactive)	> 100 µM (inactive)	39.9 µM (inactive)	89.3 µM (inactive)	> 100 µM (inactive)	> 100 µM (inactive)	> 100 µM (inactive)	> 100 µM (inactive)	> 100 µM (inactive)	> 100 µM (inactive)
CC(C)C(NC(=O)CNC(=O)C1CCCN1C(=O)C(NC(=O)OC(C)(C)C)C(C)C)C(=O)NCC(=O)OCc1ccccc1 (stereo not drawn) (Boc-VPGVG-OBn; configuration not given here)	> 100 µM (inactive)	> 100 µM (inactive)	> 100 µM (inactive)	> 100 µM (inactive)	> 100 µM (inactive)	–	> 100 µM	> 100 µM (inactive)	> 100 µM (inactive)	> 100 µM (inactive)	> 100 µM (inactive)	> 100 µM (inactive)	–	> 100 µM (inactive)	> 100 µM (inactive)	> 100 µM (inactive)	> 100 µM (inactive)	> 100 µM (inactive)	> 100 µM (inactive)	> 100 µM (inactive)
COC(=O)C1=C(C)NC(C)=C(C(=O)OCCCN2CCC(c3ccccc3)(c3ccccc3)CC2)[C@H]1c1cccc([N+](=O)[O-])c1 [NIGULDIPINE]	2.49 µM (inactive)	1.62 µM (inactive)	1.58 µM (inactive)	1.61 µM (inactive)	1.73 µM (inactive)	–	1.94 µM	1.95 µM (inactive)	11.5 µM (inactive)	1.66 µM (inactive)	1.55 µM (inactive)	1.88 µM (inactive)	1.37 µM (inactive)	2.07 µM (inactive)	1.73 µM (inactive)	1.8 µM (inactive)	3.98 µM (inactive)	1.46 µM (inactive)	1.61 µM (inactive)	1.97 µM (inactive)
